Values of other authors as cited in the CATMoS acute toxicity set (Mansouri et al. 2021).

Experiment: rat acute oral toxicity
Conditions: in vivo
Description: […]The data set underlying the modeling effort for this project was initially compiled by NICEATM and U.S. EPA’s CCTE. Briefly, LD50 data were collected from rat acute oral systemic toxicity tests, including limit tests, ranges/confidence intervals, and discrete LD50 values. The full data set included 21,200 LD50 entries for 15,688 substances. […] Data were reviewed to ensure that LD50 values with obvious errors in the extracted data such as unit conversion errors (e.g., comma and decimal separator misplacements) were either fixed or removed. After this review, 16,209 LD50 values remained. Many of the chemicals represented had multiple LD50 entries, requiring that a single representative value per Chemical Abstracts Service Registry Number (CASRN) identifier be defined to facilitate modeling efforts. Based on ATWG feedback and to define the representative LD50 as a protective value while accounting for the distribution across multiple LD50s, the median of the lowest quartile was computed using only discrete LD50 values (omitting limit test data and range and confidence interval data). A detailed summary of the data compilation is available online on the NICEATM webpage dedicated to the collaborative modeling project (NTP 2020).
[…][…] For categorical designations, limit test and range/confidence interval LD50 data were integrated wherever possible. As such, the number of chemicals with end point values/calls varies across the modeling end points (Table 3) based on whether chemicals had representative LD50 values and/or other data. If a chemical had both, the representative value was used to determine categorical calls rather than limit test data. Some data were useable only for certain end points and categories depending on the thresholds. For example, ranges that spanned multiple hazard categories were considered only for the binary (very toxic/nontoxic) end points and omitted from rendering a determination for hazard category assignment.
[…]The final data set comprising 11,992 chemicals was split into training and evaluation sets […], respectively. This process was performed semirandomly by ordering chemicals based on the five end points (categorical and continuous LD50 values) and partitioning every fourth record into the evaluation set accordingly. This approach was taken to ensure an equivalent distribution of the LD50 values and the different hazard categories between the training and the evaluation sets without supervised sampling of the chemicals based on structures (Figure 1A). The sources of the chemical structures were also kept equivalent between the two sets, with chemical structures obtained from DSSTox, being the highest quality, representing over 75% of each set (Figure 1B).

SMILES: CC(C)(C)C(=O)C(Cl)Cl
- LD50: 1300 mg/kg

SMILES: CCN(CC)C(=O)CCl
- LD50: 500 mg/kg

SMILES: O=C(OC1CCC(N2CCCCC2)CC1)c1ccccc1 (stereo not given)
- LD50: 780 mg/kg

SMILES: N#Cc1ccc([N+](=O)[O-])cc1
- LD50: 30 mg/kg

SMILES: Nc1nc2ccccc2o1
- LD50: 600 mg/kg

SMILES: CCCN(COC(C)=O)N=O
- LD50: 1000 mg/kg

SMILES: CC1(C)CC2(NC(=O)N(CCCN3CCC(O)CC3)C2=O)c2cc(Cl)ccc2O1 (stereo not given)
- LD50: 858 mg/kg

SMILES: O=C(O)c1cc(-n2c(-c3ccccc3)cc3c2CCc2ccccc2-3)ccc1O
- LD50: 450 mg/kg

SMILES: CCN(CCCC(=O)C1CCCCC1)C(C)Cc1ccc(OC)cc1 (stereo not given)
- LD50: 369 mg/kg

SMILES: COP(=O)(OC)SC(CC(=O)OC(C)C)C(=O)OC(C)C (stereo not given)
- LD50: 120 mg/kg

SMILES: CC(=O)CNC(C)(C)Cc1ccc(Cl)cc1
- LD50: 250 mg/kg

SMILES: CCC1(C(C)CC(C)C)C(=O)NC(=O)NC1=O (stereo not given)
- LD50: 75 mg/kg

SMILES: CCOP(=S)(Oc1cccc2cccnc12)c1ccccc1 (stereo not given)
- LD50: 150 mg/kg

SMILES: CN(C)N=Nc1ccc([N+](=O)[O-])cc1
- LD50: 1660 mg/kg

SMILES: C1OC1CSCC1CO1 (stereo not given)
- LD50: 32 mg/kg

SMILES: CCN(CC)CCNC(=O)C(C)(C)Oc1ccc(Cl)cc1
- LD50: 300 mg/kg

SMILES: CCC(=O)OC1CCC(N2CCCCC2)CC1 (stereo not given)
- LD50: 1980 mg/kg

SMILES: O=C(CO)Nc1ccccc1
- LD50: 1700 mg/kg

SMILES: C=C(C)CCl
- LD50: 848 mg/kg

SMILES: CSc1nc(-c2ccc(Cl)cc2)n(-c2ccc(Cl)cc2)n1
- LD50: 770 mg/kg

SMILES: CCOC(=O)C(N)Cc1ccc(O)cc1 (stereo not given)
- LD50: 13800 mg/kg

SMILES: OCCc1ccncc1
- LD50: 3500 mg/kg

SMILES: CCC(=O)OCC(=O)[C@@]1(OC(=O)CC)[C@H](C)C[C@H]2[C@H]3[C@H]([C@@H](O)C[C@@]21C)[C@@]1(C)C=CC(=O)C=C1C[C@H]3Cl
- LD50: 3590 mg/kg

SMILES: COc1ccc(C(Oc2ccccc2)C2=NCCCN2)cc1 (stereo not given)
- LD50: 1000 mg/kg

SMILES: Oc1c(I)cc(I)c(O)c1I
- LD50: 8200 mg/kg

SMILES: COP(=O)(OC)C(O)(C(F)F)C(F)F
- LD50: 9 mg/kg

SMILES: O=c1c2cccnc2oc2c(Cl)cc(-c3nn[nH]n3)cc12
- LD50: 16000 mg/kg

SMILES: O=C(Nc1nc(C(F)(F)F)c(Cl)s1)c1cc(C(F)(F)F)cc(C(F)(F)F)c1
- LD50: 69 mg/kg

SMILES: CSC(=N)N
- LD50: 800 mg/kg

SMILES: CNC(=O)ON=C1SC(C)C(=O)NC1(C)C (stereo not given)
- LD50: 0.884 mg/kg

SMILES: C[N+]1(C)CCN(CC(O)(c2ccccc2)C2CCCCC2)CC1 (stereo not given)
- LD50: 958 mg/kg

SMILES: CCOCCC(OCC)OCC
- LD50: 1600 mg/kg

SMILES: O=C(O)Cc1ccc(OCC2CC2)c(Cl)c1
- LD50: 895 mg/kg

SMILES: CN1CCCCC1C(CO)(c1ccccc1)c1ccccc1 (stereo not given)
- LD50: 410 mg/kg

SMILES: CN(C)C(O)=Nc1ccc(-n2nc(C(C)(C)C)oc2=O)c(Cl)c1
- LD50: 1000 mg/kg

SMILES: OCCC(F)(F)C(F)(F)C(F)(F)C(F)(F)C(F)(F)C(F)(F)F
- LD50: 1750 mg/kg

SMILES: CCCC(=O)c1ccc2c(c1)N(CCCN(C)C)c1ccccc1S2
- LD50: 300 mg/kg

SMILES: O=[N+]([O-])c1ccc(CCl)cc1
- LD50: 1810 mg/kg

SMILES: CC(=O)OCCN(CCC#N)c1ccccc1
- LD50: 2070 mg/kg

SMILES: CCC1OC(C)C(=NOC(=O)NC)S1 (stereo not given)
- LD50: 8 mg/kg

SMILES: CCC(C)c1ccc(Cl)c(OC(=O)NC)c1 (stereo not given)
- LD50: 50 mg/kg

SMILES: C=C(C)C(=O)OCC(CCCC)CCCCCC (stereo not given)
- LD50: 26000 mg/kg

SMILES: CCN(N=O)C(N)=O
- LD50: 300 mg/kg

SMILES: CCOC=C(C(=O)OCC)C(=O)OCC
- LD50: 925 mg/kg

SMILES: CC1(C)C(=O)N(Cl)C(=O)N1Cl
- LD50: 542 mg/kg

SMILES: Nc1ncnc2[nH]ncc12
- LD50: 141 mg/kg

SMILES: COP(=S)(OC)SCn1ncccc1=O
- LD50: 3.5 mg/kg

SMILES: O=c1nc[nH]c2c1ncn2[C@@H]1O[C@H](COP(=O)(O)OP(=O)(O)O)[C@@H](O)[C@H]1O
- LD50: 3790 mg/kg

SMILES: C#CCN(C)C1CCc2ccccc21 (stereo not given)
- LD50: 250 mg/kg

SMILES: Cn1c(=O)c2c(ncn2CCCCCN2CCN(c3ccc(Cl)cc3)CC2)n(C)c1=O
- LD50: 353 mg/kg

SMILES: O=C1CCCCC1(CCN1CCCCCC1)C(=O)OCc1ccccc1 (stereo not given)
- LD50: 450 mg/kg

SMILES: CN1CCCC(=C(c2cccs2)c2cccs2)C1
- LD50: 10000 mg/kg

SMILES: CN(C)C(=O)Oc1ccc[n+](C)c1
- LD50: 37.5 mg/kg

SMILES: Nc1ccc2c(c1)Cc1cc(N)ccc1-2
- LD50: 1070 mg/kg

SMILES: CCc1ccc(Oc2ccc(C)cc2CC(=O)O)c(Cl)c1
- LD50: 2850 mg/kg

SMILES: CCN=C1SC(=NOC(=O)NC)C(C)(C)S1
- LD50: 6.3 mg/kg

SMILES: Cc1cc(Sc2cc(C)c(O)c(C(C)(C)C)c2)cc(C(C)(C)C)c1O
- LD50: 6340 mg/kg

SMILES: COC(=O)Nc1nc2cc(C(=O)c3ccccc3)ccc2[nH]1
- LD50: 714 mg/kg

SMILES: C#CCC1=C(C)C(OC(=O)C2C(C=C(C)C)C2(C)C)CC1=O (stereo not given)
- LD50: 460 mg/kg

SMILES: O=S(=O)(c1cccc2cnccc12)N1CCCNCC1
- LD50: 335 mg/kg
